Patent US20060069132A1, “Azolecarboxamide herbicides” (priority 2004, published 2006)
Like-named read-outs stand apart in the source and are kept apart here.

Legend:
[1] = tested on: large crabgrass; experiment: Test A pre-/postemergence herbicide test; type: in vivo, Digitaria sanguinalis; details: Digitaria sanguinalis, 240 h; for pest or weed control at 500 g/ha: 500 g ai/ha; for pest or weed control at 2000 g/ha: 2000 g ai/ha
How it was run: (§1)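 Plants are held in greenhouse about ten days after treatment, then compared with untreated controls and scored 0 (no effect) to 100 (complete control). Preemergence dosing is a directed soil spray on sown sandy loam; postemergence dosing is spray to runoff at 2–10 cm height.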

[2] = tested on: barnyardgrass; experiment: Test A pre-/postemergence herbicide test; type: in vivo, Echinochloa crus-galli; details: Echinochloa crus-galli, 240 h; for pest or weed control at 500 g/ha: 500 g ai/ha; for pest or weed control at 2000 g/ha: 2000 g ai/ha
How it was run: as §1

[3] = tested on: velvetleaf; experiment: Test A pre-/postemergence herbicide test; type: in vivo, Abutilon theophrasti; details: Abutilon theophrasti, 240 h; for pest or weed control at 500 g/ha: 500 g ai/ha; for pest or weed control at 2000 g/ha: 2000 g ai/ha
How it was run: as §1

[4] = tested on: giant foxtail; experiment: Test A pre-/postemergence herbicide test; type: in vivo, Setaria faberi; details: Setaria faberi, 240 h; for pest or weed control at 500 g/ha: 500 g ai/ha; for pest or weed control at 2000 g/ha: 2000 g ai/ha
How it was run: as §1

[5] = tested on: rice; experiment: Test C flooded paddy test; type: in vivo, Oryza sativa; details: Oryza sativa; for plant injury at 62 g/ha: 62 g ai/ha; for plant injury at 125 g/ha: 125 g ai/ha; for plant injury at 250 g/ha: 250 g ai/ha, scale of 0 to 100, 0 is no effect, 100 is complete control; for plant injury at 500 g/ha: 500 g ai/ha, visual rating after 12 to 14 days, read-out: Plant response rating, Rice
How it was run: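 Postemergence sprays applied to plants 2 to 18 cm tall (1- to 4-leaf stage); paddy species grown to 2-leaf stage under flooding. After 12 to 14 days in greenhouse, visual rating versus untreated controls on 0–100 scale (0 no effect, 100 complete control).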

[6] = tested on: ducksalad; experiment: Test C flooded paddy test; type: in vivo, Heteranthera limosa; details: Heteranthera limosa; for pest or weed control at 62 g/ha: 62 g ai/ha; for pest or weed control at 125 g/ha: 125 g ai/ha; for pest or weed control at 250 g/ha: 250 g ai/ha, scale of 0 to 100, 0 is no effect, 100 is complete control; for pest or weed control at 500 g/ha: 500 g ai/ha, visual rating after 12 to 14 days, read-out: Plant response rating, Ducksalad
[7] = post-emergence, Postemergence, 0 to 100 scale, 0 no effect, 100 complete control, read-out: Crabgrass, Large plant response rating
[8] = post-emergence, Postemergence, 0 to 100 scale, 0 no effect, 100 complete control, read-out: Plant response rating, Crabgrass, Large
[9] = pre-emergence, Preemergence, visual rating, 0 to 100 scale (0 no effect, 100 complete control), read-out: Crabgrass, Large plant response rating
[10] = post-emergence, Postemergence, 0 to 100 scale, 0 no effect, 100 complete control, read-out: Barnyardgrass plant response rating
[11] = post-emergence, Postemergence, 0 to 100 scale, 0 no effect, 100 complete control, read-out: Plant response rating, Barnyardgrass
[12] = pre-emergence, Preemergence, visual rating, 0 to 100 scale (0 no effect, 100 complete control), read-out: Barnyardgrass plant response rating
[13] = post-emergence, Postemergence, 0 to 100 scale, 0 no effect, 100 complete control, read-out: Velvetleaf plant response rating
[14] = post-emergence, Postemergence, 0 to 100 scale, 0 no effect, 100 complete control, read-out: Plant response rating, Velvetleaf
[15] = pre-emergence, Preemergence, visual rating, 0 to 100 scale (0 no effect, 100 complete control), read-out: Velvetleaf plant response rating
[16] = pre-emergence, preemergence, visual injury, 0 to 100 scale (0 no effect, 100 complete control), read-out: Velvetleaf plant response rating
[17] = post-emergence, Postemergence, 0 to 100 scale, 0 no effect, 100 complete control, read-out: Foxtail, Giant plant response rating
[18] = post-emergence, Postemergence, 0 to 100 scale, 0 no effect, 100 complete control, read-out: Plant response rating, Foxtail, Giant
[19] = pre-emergence, Preemergence, visual rating, 0 to 100 scale (0 no effect, 100 complete control), read-out: Foxtail, Giant plant response rating
[20] = scale 0 to 100 (0 no effect, 100 complete control), read-out: Rice plant response rating
[21] = read-out: Rice plant response rating
[22] = scale 0 to 100 (0 no effect, 100 complete control)
[23] = scale 0 to 100 (0 no effect, 100 complete control), read-out: Ducksalad plant response rating
[24] = read-out: Ducksalad plant response rating

CCn1nc(C(C)(C)C)cc1C(=O)Nc1cccc(C(=O)OC)n1 [Compound 143, methyl 6-[[[3-(1,1-dimethylethyl)-1-ethyl-1H-pyrazol-5-yl]carbonyl]amino]-2-pyridinecarboxylate]
pest or weed control at 500 g/ha [1, 7]: 20%
pest or weed control at 2000 g/ha [1, 8]: 30%
pest or weed control at 500 g/ha [1, 9]: 0%
pest or weed control at 2000 g/ha [1, 9]: 15%
pest or weed control at 500 g/ha [2, 10]: 10%
pest or weed control at 2000 g/ha [2, 11]: 25%
pest or weed control at 500 g/ha [2, 12]: 0%
pest or weed control at 2000 g/ha [2, 12]: 0%
pest or weed control at 500 g/ha [3, 13]: 0%
pest or weed control at 2000 g/ha [3, 14]: 15%
pest or weed control at 2000 g/ha [3, 15]: 0%
pest or weed control at 500 g/ha [3, 16]: 0%
pest or weed control at 500 g/ha [4, 17]: 10%
pest or weed control at 2000 g/ha [4, 18]: 15%
pest or weed control at 500 g/ha [4, 19]: 0%
pest or weed control at 2000 g/ha [4, 19]: 0%

CCn1nc(C(C)(C)C)cc1C(=O)Nc1cc(C(=O)OC)ccn1 [Compound 151, methyl 2-[[[3-(1,1-dimethylethyl)-1-ethyl-1H-pyrazol-5-yl]carbonyl]amino]-4-pyridinecarboxylate]
pest or weed control at 500 g/ha [1, 7]: 5%
pest or weed control at 2000 g/ha [1, 8]: 10%
pest or weed control at 500 g/ha [1, 9]: 0%
pest or weed control at 2000 g/ha [1, 9]: 0%
pest or weed control at 500 g/ha [2, 10]: 10%
pest or weed control at 2000 g/ha [2, 11]: 10%
pest or weed control at 500 g/ha [2, 12]: 0%
pest or weed control at 2000 g/ha [2, 12]: 0%
pest or weed control at 500 g/ha [3, 13]: 35%
pest or weed control at 2000 g/ha [3, 14]: 60%
pest or weed control at 2000 g/ha [3, 15]: 10%
pest or weed control at 500 g/ha [3, 16]: 0%
pest or weed control at 500 g/ha [4, 17]: 10%
pest or weed control at 2000 g/ha [4, 18]: 10%
pest or weed control at 500 g/ha [4, 19]: 0%
pest or weed control at 2000 g/ha [4, 19]: 0%

CCn1nc(C(C)(C)C)cc1C(=O)Nc1ccc(F)c(C(=O)N(C)C)c1 [Compound 236, N-[3-[(dimethylamino)carbonyl]-4-fluorophenyl]-3-(1,1-dimethylethyl)-1-ethyl-1H-pyrazole-5-carboxamide]
plant injury at 62 g/ha [5, 20]: 0%
plant injury at 125 g/ha [5, 20]: 30%
plant injury at 250 g/ha [5, 21]: 60%
plant injury at 500 g/ha [5, 22]: 70%
pest or weed control at 62 g/ha [6, 23]: 0%
pest or weed control at 125 g/ha [6, 23]: 40%
pest or weed control at 250 g/ha [6, 24]: 55%
pest or weed control at 500 g/ha [6, 22]: 80%

CCNC(=O)c1cc(NC(=O)c2cn(C(C)(C)C)nc2CC)ccc1F [Compound 241, 1-(1,1-dimethylethyl)-3-ethyl-N-[3-[(ethylamino)carbonyl]-4-fluorophenyl]-1H-pyrazole-4-carboxamide]
plant injury at 62 g/ha [5, 20]: 0%
plant injury at 125 g/ha [5, 20]: 0%
plant injury at 250 g/ha [5, 21]: 30%
plant injury at 500 g/ha [5, 22]: 65%
pest or weed control at 62 g/ha [6, 23]: 0%
pest or weed control at 125 g/ha [6, 23]: 0%
pest or weed control at 250 g/ha [6, 24]: 0%
pest or weed control at 500 g/ha [6, 22]: 15%

CCOC(=O)c1ccc(F)c(NC(=O)C2CC(C(C)(C)C)=NN2CC)c1 (stereo not drawn) [Compound 267, ethyl 3-[[[3-(1,1-dimethylethyl)-1-ethyl-4,5-dihydro-1H-pyrazol-5-yl]carbonyl]amino]-4-fluorobenzoate]
pest or weed control at 500 g/ha [1, 7]: 45%
pest or weed control at 2000 g/ha [1, 8]: 75%
pest or weed control at 2000 g/ha [1, 9]: 90%
pest or weed control at 500 g/ha ([1]; pre-emergence, preemergence, visual injury, 0 to 100 scale (0 no effect, 100 complete control), read-out: Crabgrass, Large plant response rating): 15%
pest or weed control at 500 g/ha [2, 10]: 40%
pest or weed control at 2000 g/ha [2, 11]: 65%
pest or weed control at 2000 g/ha [2, 12]: 80%
pest or weed control at 500 g/ha ([2]; pre-emergence, preemergence, visual injury, 0 to 100 scale (0 no effect, 100 complete control), read-out: Barnyardgrass plant response rating): 70%
pest or weed control at 500 g/ha [3, 13]: 30%
pest or weed control at 2000 g/ha [3, 14]: 35%
pest or weed control at 2000 g/ha [3, 15]: 60%
pest or weed control at 500 g/ha [3, 16]: 25%
pest or weed control at 500 g/ha [4, 17]: 30%
pest or weed control at 2000 g/ha [4, 18]: 55%
pest or weed control at 2000 g/ha [4, 19]: 85%
pest or weed control at 500 g/ha ([4]; pre-emergence, preemergence, visual injury, 0 to 100 scale (0 no effect, 100 complete control), read-out: Foxtail, Giant plant response rating): 75%

CCc1nn(C(C)C)nc1C(=O)Nc1cccc(C(=O)N(C)C)c1 [Compound 358, N-[3-[(dimethylamino)carbonyl)phenyl]-5-ethyl-2-(1-methylethyl)-2H-1,2,3-triazole-4-carboxamide]
plant injury at 62 g/ha ([5]; scale 0 to 100, read-out: Rice plant response rating): 20%
plant injury at 125 g/ha [5, 20]: 65%
plant injury at 250 g/ha [5, 21]: 70%
plant injury at 500 g/ha [5, 22]: 85%
pest or weed control at 62 g/ha ([6]; scale 0 to 100, read-out: Ducksalad plant response rating): 0%
pest or weed control at 125 g/ha [6, 23]: 80%
pest or weed control at 250 g/ha [6, 24]: 90%
pest or weed control at 500 g/ha [6, 22]: 95%
